From patent US6809119B2, “Branched chain amino acid-dependent aminotransferase inhibitors and their use in the treatment of neurodegenerative diseases” (Warner-Lambert Company LLC, priority 2001, dated 2004)

Key:
[1] = target: T1, human Branched Chain Amino Acid Aminotransferase cytosolic form (hBCATc) (Homo sapiens, UniProt P54687); test: In vitro coupled enzyme assay, human BCAT cytosolic form; format: biochemical; settings: inhibition of recombinant human BCATc; coupled glutamate dehydrogenase/NADH assay, 37° C., pH 7.8; read-out: rhBCATc
T1 construct: inferred from purification on a Ni-charged chelating column with imidazole elution; made in house; host or cells: E. coli BL21(DE3)
T1 sequence (P54687 1-386): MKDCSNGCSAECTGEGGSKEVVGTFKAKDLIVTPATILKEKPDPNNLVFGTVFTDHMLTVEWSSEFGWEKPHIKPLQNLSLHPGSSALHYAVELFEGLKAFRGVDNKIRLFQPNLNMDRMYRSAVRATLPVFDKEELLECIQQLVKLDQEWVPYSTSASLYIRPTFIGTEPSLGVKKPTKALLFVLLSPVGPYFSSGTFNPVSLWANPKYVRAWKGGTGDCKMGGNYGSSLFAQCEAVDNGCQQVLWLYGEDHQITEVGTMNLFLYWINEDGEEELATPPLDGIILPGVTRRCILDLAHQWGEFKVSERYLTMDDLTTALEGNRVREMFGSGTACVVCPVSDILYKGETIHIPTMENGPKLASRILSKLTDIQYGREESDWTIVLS
Procedure: (§1) In vitro enzyme assay: human Branched Chain Amino Acid Aminotransferase cytosolic form (hBCATc) and mitochondrial form (hBCATm) as well as rat BCAT cytosolic form were assayed at 37° C. in 25 mM phosphate buffer pH 7.8. In addition, 2 mM DTT and 12.5 mM EDTA were added to the assay mixture. A coupling enzyme assay was used to monitor the production of glutamate. The formation of NADH from NAD+at […] was followed on a 96-well plate Molecular Devices plate reader. The following components were used in this coupled assay: 4 mM ADP, 1 mM NAD+, 750 μM L-Leucine, 500 μM a-ketoglutarate, 10 μM pyridoxal phosphate, 1 unit glutamate dehydrogenase, and 1.25 μg of the appropriate BCAT enzyme. Inhibitions by compounds were assayed by adding various concentrations to this coupled assay procedure as a DMSO stock up to a 5% v/v DMSO/buffer ratio.
(§2) Enzyme Preparation: humanBCATc and ratBCATc were expressed in BL21(DE3) cells. A growing culture of cells was induced with 1 mM IPTG at room temperature overnight. These cells were harvested by centrifugation at 10,000 g for 20 minutes. The supernatant was discarded, and the cells were stored at −80° C. until needed. The protein was purified by the following method. The cell paste was resuspended in extraction buffer (0.1 M phosphate, pH 8.0, with 0.01 M Tris-HCL and 5 mM TCEP and then lysed on a French Press at 1000 psi. The lysate was centrifuged at 10,000 g for 15 minutes, and the pellet was discarded. The supernatant was loaded onto a Hitrap Chelating column previously charged with 0.1 M NiSO4 and washed with 3 to 4 column volumes of extraction buffer. The column was then washed with 0.01 Tris, pH 7.5, 10% glycerol, 150 mM NaCl, 5 mM TCEP for two column volumes. The column was then further washed with two column volumes of 0.1 M phosphate, pH 6.0, 0.01 M Tris, 10% glycerol, and 750 mM NaCl. Finally, the column was washed with two column volumes of the same buffer plus 50 mM imidazole. The BCAT enzyme was then eluted with the same buffer but with 350 mM imidazole. The eluant was then dialyzed overnight against 10 mM phosphate buffer pH 8.0, 10% glycerol, and 5 mM TCEP. The dialyzed protein was then loaded onto a Q-sepharose column and eluted using a salt gradient. Active fractions were collected and further purified on a Superose-12 column to yield pure BCAT protein.

[2] = target: T2, rat BCAT cytosolic form (rrBCATc) (Rattus norvegicus, UniProt P54690); test: In vitro coupled enzyme assay, rat BCAT cytosolic form; format: biochemical; settings: inhibition of recombinant rat BCATc; coupled glutamate dehydrogenase/NADH assay, 37° C., pH 7.8
T2 construct: inferred from purification on a Ni-charged chelating column with imidazole elution; made in house; host or cells: E. coli BL21(DE3)
T2 sequence (P54690 1-411): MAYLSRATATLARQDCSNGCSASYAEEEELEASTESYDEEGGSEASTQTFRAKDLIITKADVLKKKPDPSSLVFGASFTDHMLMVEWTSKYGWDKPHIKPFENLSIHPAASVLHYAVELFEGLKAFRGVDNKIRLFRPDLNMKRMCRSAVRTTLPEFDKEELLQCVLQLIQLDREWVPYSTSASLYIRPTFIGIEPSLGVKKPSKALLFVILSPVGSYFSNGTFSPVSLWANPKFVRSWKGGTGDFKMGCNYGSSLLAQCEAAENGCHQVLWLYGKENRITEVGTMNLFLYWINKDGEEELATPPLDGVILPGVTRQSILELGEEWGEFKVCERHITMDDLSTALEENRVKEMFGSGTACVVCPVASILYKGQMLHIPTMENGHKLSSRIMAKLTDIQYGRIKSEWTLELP
Procedure: as §1, §2

SMILES	melting point [°C]	IC50 [1] [µM]	IC50 [2] [µM]
O=C(NNS(=O)(=O)c1ccccc1)c1ccc(NS(=O)(=O)c2c(Cl)cc(Cl)cc2Cl)cc1 [Example 3, Benzoic acid, 4-[[(2,4,6trichlorophenyl)sulfonyl]amino]-, 2-(phenylsulfonyl)hydrazide]	195.7 to 196.2	0.7	–
O=C(NNS(=O)(=O)c1ccccc1C(F)(F)F)c1ccc(Oc2ccccc2)cc1 [Example 23, 4-Phenoxybenzoic acid, 2-[2-trifluorophenylsulfonyl]hydrazide]	–	17	0.43
O=C(NNS(=O)(=O)c1cccc(Br)c1)c1ccc(Oc2ccccc2)cc1 [Example 19, 4-Phenoxybenzoic acid, 2-[3-bromophenylsulfonyl]hydrazide]	–	28	2.8
Cc1cccc(Cl)c1S(=O)(=O)Nc1ccc(C(=O)NNS(=O)(=O)c2ccccc2)cc1 [Example 7, Benzoic acid, 4-[[(2-chloro-6-methylphenyl)sulfonyl]amino]-, 2-(phenylsulfonyl)hydrazide]	214.4 to 215.6	–	–
O=C(NNS(=O)(=O)c1ccccc1Cl)c1ccc(Oc2ccccc2)cc1 [Example 20, 4-Phenoxybenzoic acid, 2-[2-chlorophenylsulfonyl]hydrazide]	–	35	5.9
COc1ccc(S(=O)(=O)Nc2ccc(C(=O)NNS(=O)(=O)c3ccccc3)cc2)cc1 [Example 30, Benzoic acid, 4-[[(4-methoxyphenyl)sulfonyl]amino]-, 2-(phenylsulfonyl)hydrazide]	164.3 to 164.9	2.8	–
CCCCc1ccc(S(=O)(=O)Nc2ccc(C(=O)NNS(=O)(=O)c3ccccc3)cc2)cc1 [Example 12, Benzoic acid, 4-[[(4-n-butylphenyl)sulfonyl]amino]-, 2-(phenylsulfonyl)hydrazide]	76 to 77.1	4.6	–
CCc1ccc(S(=O)(=O)Nc2ccc(C(=O)NNS(=O)(=O)c3ccccc3)cc2)cc1 [Example 10, Benzoic acid, 4-[[(4-ethylphenyl)sulfonyl]amino]-, 2-(phenylsulfonyl)hydrazide]	142.3 to 142.9	13	–
O=C(NNS(=O)(=O)c1ccccc1)c1ccc(NS(=O)(=O)c2ccc(Oc3ccccc3)cc2)cc1 [Example 6, Benzoic acid, 4-[[[(4-phenoxy)benzene]sulfonyl]amino]-, 2-(phenylsulfonyl)hydrazide]	94.1 to 94.9	3	–
Cc1ccc(S(=O)(=O)NNC(=O)c2ccc(Oc3ccccc3)cc2)cc1[N+](=O)[O-] [Example 22, 4-Phenoxybenzoic acid, 2-[(4-methyl-3-nitro)phenylsulfonyl]hydrazide]	–	110	–
O=C(NNS(=O)(=O)c1ccccc1OC(F)(F)F)c1ccc(Oc2ccccc2)cc1 [Example 21, 4-Phenoxybenzoic acid, 2-[2-(trifluoromethoxy)phenylsulfonyl]hydrazide]	–	28	2.9
CCCc1ccc(S(=O)(=O)Nc2ccc(C(=O)NNS(=O)(=O)c3ccccc3)cc2)cc1 [Example 11, Benzoic acid, 4-[[(4-n-propylphenyl)sulfonyl]amino]-, 2-(phenylsulfonyl)hydrazide]	–	7.5	–
O=C(NNS(=O)(=O)c1ccccc1)c1ccc(NS(=O)(=O)c2ccc(C(F)(F)F)cc2)cc1 [Example 4, Benzoic acid, 4-[[[4-(trifluoromethyl)phenyl]sulfonyl]amino]-, 2-(phenylsulfonyl)hydrazide]	98.5 to 99.4	6	–
O=C(NNS(=O)(=O)c1ccccc1)c1cccc(Oc2ccccc2)c1 [Example 26, 3-Phenoxybenzoic acid, 2-(phenylsulfonyl)hydrazide]	–	34	2.2
O=C(NNS(=O)(=O)c1ccccc1)c1ccccc1Oc1ccccc1 [Example 27, 2-Phenoxybenzoic acid, 2-(phenylsulfonyl)hydrazide]	149 to 150	50	–

Results, then the compound that gave them:

melting point [°C]	IC50 [1] [µM]	IC50 [2] [µM]	SMILES
–	2.3	–	Cc1cccc(S(=O)(=O)Nc2ccc(C(=O)NNS(=O)(=O)c3ccccc3)cc2)c1 [Example 17, Benzoic acid, 4-[[(3-methylphenyl)sulfonyl]amino]-, 2-(phenylsulfonyl)hydrazide]
193 to 195	–	–	O=C(NNS(=O)(=O)c1ccccc1)c1ccc(I)cc1 [Example 31, 4-Iodo-benzoic acid, 2-(phenylsulfonyl)hydrazide]
158 to 159	15.4	0.25	O=C(NNS(=O)(=O)c1ccccc1)c1ccc(CCC2(O)CCCCC2)cc1 [Example 36]
193 to 195	40	–	O=C(NNS(=O)(=O)c1ccccc1)c1ccc([N+](=O)[O-])cc1 [Example 1, Benzoic acid, 4-nitro-2-(phenylsulfonyl)hydrazide]
191.6 to 192.4	3.8	–	Cc1ccc(S(=O)(=O)Nc2ccc(C(=O)NNS(=O)(=O)c3ccccc3)cc2)cc1 [Example 9, Benzoic acid, 4-[[(4-methylphenyl)sulfonyl]amino]-, 2-(phenylsulfonyl)hydrazide]
–	37	1.5	O=C(NNS(=O)(=O)c1ccccc1)c1ccc(Oc2ccccc2)cc1 [Example 28, 4-Phenoxybenzoic acid, 2-(phenylsulfonyl)hydrazide]
–	9.5	1.2	Cc1cccc(S(=O)(=O)NNC(=O)c2ccc(Oc3ccccc3)cc2)c1 [Example 18, 4-Phenoxybenzoic acid, 2-[(3-methyl)phenylsulfonyl]hydrazide]
183.5 to 185	4.8	–	O=C(NNS(=O)(=O)c1ccccc1)c1ccc(NS(=O)(=O)c2ccc(F)cc2)cc1 [Example 14, Benzoic acid, 4-[[(4-fluorophenyl)sulfonyl]amino]-, 2-(phenylsulfonyl)hydrazide]
180 to 182	32.3	–	O=C(NNS(=O)(=O)c1ccccc1)c1ccc(C#CCC2CCCCC2)cc1 [Example 34, 4-(3-Cyclohexyl-1-propynyl)-benzoic acid, 2-(phenylsulfonyl)hydrazide]
140.8 to 144.5	4.9	–	O=C(NNS(=O)(=O)c1ccccc1)c1ccc(NS(=O)(=O)c2ccccc2)cc1 [Example 15]
185.6 to 186.5	7	–	CS(=O)(=O)Nc1ccc(C(=O)NNS(=O)(=O)c2ccccc2)cc1 [Example 8, Benzoic acid, 4-[(methylsulfonyl)amino]-, 2-(phenylsulfonyl)hydrazide]
219 to 219.7	–	–	Cc1cccc(S(=O)(=O)Nc2ccc(C(=O)NNS(=O)(=O)c3ccccc3)cc2)c1 (hydrate or solvate) [Example 17, Benzoic acid, 4-[[(3-methylphenyl)sulfonyl]amino]-, 2-(phenylsulfonyl)hydrazide]
